Data: patent US11186874B2, “ERK1 and ERK2 mutations that confer resistance to MAPK pathway inhibitors” (Dana-Farber Cancer Institute, Inc., priority 2014, dated 2021)

What was measured:
[1] = system: A375 cells; assay: MTS growth assay of A375 cells expressing DOX-inducible ERK1/2 alleles in the presence of MAPK pathway inhibitors; format: cell-based
Description: To verify their resistance effects, we engineered the relevant mutations for highly mutated alleles or for low frequency alleles that were analogous between ERK1 and ERK2 within the coding sequence of ERK1 or ERK2 by site directed mutagenesis in the doxycycline-inducible vector. […] Here, we defined validation as a >4-fold increase in cell growth conferred by DOX-induced mutant ERK expression compared to control cells cultured without DOX (FIG. 2A, Table 4, FIG. 8G).
A375, WM266.4, or SKmel19 cells were plated in 96-well plates, with six replicates for each drug. Drugs were added the next day with or without DOX. Cell growth was analyzed 72-96 hours later by MTS assay (Promega). The inhibitor concentrations were the same as the screen. […] Growth was normalized to DMSO, NO-DOX controls, and graphed as percent growth. Heatmaps were created from growth assays using GENE-E (Available on the World Wide Web at broadinstitute.org/cancer/software/GENE-E/download.html). For some growth assays, a half-log dose response curve was generated to determine sensitivity. The concentration of DMSO was 0.1%.

[2] = system: ERK1/2; assay: Western blotting of ERK signaling in A375 cells expressing ERK1/2 alleles; format: cell-based; conditions: for ERK signaling (RSK phosphorylation, DUSP6, cyclin D1) in the presence of ERK inhibitor: ten ERK inhibitor resistance alleles, DOX, 24 h
Procedure: Cells were exposed to DOX with or without MAPK inhibitor at the same doses used in the screen for 24 h, then harvested in RIPA buffer, and run on SDS-PAGE. Proteins were transferred to PVDF membranes and analyzed using the following antibodies phosphoERK1/2, ERK1/2, phosphoELK-1 S383 (Santa Cruz), phosphoRSK (S380), RSK, tubulin, DUSP6 (Cell Signaling), cyclin D1 (Thermo Scientific), and V5 (Abcam). Relative expression was calculated by comparing densities of bands of phoshoELK-1 to total ERK (or V5). Values were normalized to untreated WT, which was set at 1.

[3] = system: ERK2; assay: IP kinase assay, V5-tagged ERK2, phosphorylation of recombinant ELK-1 peptide; format: biochemical, human; conditions: for ERK kinase activity of ERK inhibitor resistance alleles in the presence of inhibitor: ERK2 resistance alleles, FIG. 3B, FIG. 10B
Procedure: (§1) Phosphorylation of ELK-1 (at serine 383) was measured by Western blotting.
(§2) ERK1 and ERK2 open constructs were transferred into DEST40 (C-terminal V5 tag) vector (Invitrogen) using LR clonase II. A375 cells were transiently transfected with V5-tagged ERK1 or ERK2 constructs using X-tremeGENE HP (Roche). […] Reactions were stopped with the addition on 3× SDS loading buffer. Samples were boiled and supernatant was run on SDS-PAGE gel for western blotting.

[4] = molecular target: T1, ERK1 (Homo sapiens, UniProt P27361, Y148H); assay: IP kinase assay, V5-tagged ERK1, phosphorylation of recombinant ELK-1 peptide; format: biochemical; conditions: ERK1^Y148; trametinib 3 nM, 4 h
T1 construct: made in house; host or cells: A375 cells, transient transfection; captured on V5-agarose beads

[5] = system: ERK1; assay: as above; format: biochemical, human; conditions: ERK1 alleles; trametinib 3 nM, 4 h, added to cells prior to harvest
[6] = molecular target: T2, ERK2 (Homo sapiens, UniProt P28482); assay: IP kinase assay, V5-tagged ERK2, phosphorylation of recombinant ELK-1 peptide; format: biochemical; conditions: wild type ERK2; VX-11e 0.1 μM added during the kinase assay
T2 construct: made in house; host or cells: A375 cells, transient transfection; captured on V5-agarose beads
Procedure: as §1, §2

T1 sequence (P27361 2-379 Y148H): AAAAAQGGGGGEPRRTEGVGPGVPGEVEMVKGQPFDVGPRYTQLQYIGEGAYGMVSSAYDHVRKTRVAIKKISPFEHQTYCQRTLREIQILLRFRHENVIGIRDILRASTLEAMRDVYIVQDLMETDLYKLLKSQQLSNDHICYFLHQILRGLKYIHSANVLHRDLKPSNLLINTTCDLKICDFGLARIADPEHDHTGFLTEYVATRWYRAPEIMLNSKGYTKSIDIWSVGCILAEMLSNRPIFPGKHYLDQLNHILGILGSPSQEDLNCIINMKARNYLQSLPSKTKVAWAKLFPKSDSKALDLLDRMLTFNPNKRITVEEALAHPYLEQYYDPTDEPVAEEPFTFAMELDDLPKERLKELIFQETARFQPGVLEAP
T2 sequence (P28482 2-360): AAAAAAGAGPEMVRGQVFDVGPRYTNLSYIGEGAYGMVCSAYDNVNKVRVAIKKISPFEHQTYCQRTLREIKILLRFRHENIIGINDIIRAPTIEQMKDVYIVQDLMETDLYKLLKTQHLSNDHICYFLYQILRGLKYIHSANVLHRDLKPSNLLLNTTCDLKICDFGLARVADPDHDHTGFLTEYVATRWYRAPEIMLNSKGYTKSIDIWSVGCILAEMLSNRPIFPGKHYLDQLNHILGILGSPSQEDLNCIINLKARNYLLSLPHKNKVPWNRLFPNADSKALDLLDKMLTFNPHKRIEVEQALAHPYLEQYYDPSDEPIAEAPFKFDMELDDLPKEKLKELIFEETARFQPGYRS

SMILES	growth advantage ([1]; ERK1^Y53H, 0.5 μM SCH772984) [fold]	increase in cell growth ([1]; ERK1^Y53H, 1 μM SCH772984) [fold]	increase in cell growth with allele expression ([1]; selected VX-11e-resistant ERK1 and ERK2 alleles, SCH772984)	phosphorylation of ERK2-resistant alleles ([2]; A375, ERK inhibitor resistant ERK2 alleles)	ERK signaling (RSK phosphorylation, DUSP6, cyclin D1) in the presence of ERK inhibitor ([2]; A375)	phosphorylation of wild type ERK1/2 ([2]; A375, wild type ERK1/2)	ERK kinase activity of ERK inhibitor resistance alleles in the presence of inhibitor [3]	residual kinase activity of common docking domain mutants compared to other alleles ([3]; ERK2^Y131, ERK2^D321G, ERK2^E322K, trametinib 3 nM, 4 h)	ERK kinase activity (ELK-1 peptide phosphorylation) of RAF/MEK inhibitor resistant alleles in the presence of MEK inhibitor ([3]; ERK2 alleles, trametinib 3 nM, 4 h, added to cells prior to harvest)	residual kinase activity of common docking domain mutants compared to other alleles [4]	ERK kinase activity (ELK-1 peptide phosphorylation) of RAF/MEK inhibitor resistant alleles in the presence of MEK inhibitor [5]	increase in cell growth conferred by DOX-induced mutant ERK expression compared to control cells cultured without DOX ([1]; 16 validated of 20 candidate ERK1/2 resistance alleles, VX-11e 2 μM) [fold]	effect on growth in the presence of the ERK inhibitor ([1]; kinase-dead ERK1 and ERK2 and GFP, VX-11e 2 μM)	growth advantage in the presence of the ERK inhibitor ([1]; wild-type ERK1 and ERK2, VX-11e 2 μM) [fold]	ERK phosphorylation ([2]; any context examined)	ELK-1 phosphorylation (serine 383) induced by wild type ERK2 [6]
O=C(Nc1ccc2[nH]nc(-c3ccncc3)c2c1)[C@@H]1CCN(CC(=O)N2CCN(c3ccc(-c4ncccn4)cc3)CC2)C1 [SCH772984]	5	2.5	over 4 fold	no effect	maintained	decreased	maintained ERK kinase activity									
CC(=O)Nc1cccc(-n2c(=O)n(C3CC3)c(=O)c3c(Nc4ccc(I)cc4F)n(C)c(=O)c(C)c32)c1 [trametinib]								diminished residual kinase activity	maintained ERK kinase activity	diminished residual kinase activity	maintained ERK kinase activity					
Cc1cnc(Nc2ccc(F)cc2Cl)nc1-c1c[nH]c(C(=O)N[C@H](CO)c2cccc(Cl)c2)c1 [VX-11e]					sustained ERK signaling		maintained ERK kinase activity					> 4	no effect	1.5	no effect	completely blocked
